In general, Ki refers to a dissociation constant, usually derived from enzyme kinetics or from competition with a known ligand. A word on the melting point: it is the temperature, or range, at which the solid turns liquid.

The target of data set [1] is hNPY-1,2,4 (human Y1, Y2, Y4 receptors). Briefly: Radioligand binding to membranes, cloned human Y1, Y2 and Y4 receptors. Conditions: one bound given for all three. Here is the method: Binding of the compounds of the present invention to human Y1, Y2, Y4, and Y5 receptors was evaluated using stably transfected 293 or LM(tk-) cells as described above. Stably transfected cell lines which may be used for binding assays include, for example, for the human Y1 receptor, 293-hY1-5 (deposited Jun. 4, 1996, under ATCC Accession No. CRL-12121), for the human Y2 receptor, 293-hY2-10 (deposited Jan. 27, 1994, under ATCC Accession No. CRL-11537), for the human Y4 receptor, L-hY4-3 (deposited Jan. 11, 1995, under ATCC Accession No. CRL-11779), and for human Y5 receptor, L-hY5-7 (deposited Nov. 15, 1995, under ATCC Accession No. CRL-11995). These cell lines were deposited with the American Type Culture Collection (ATCC), 10801 University Blvd., Manassas, Va. 20110-2209, U.S.A. under the provisions of the Budapest Treaty for the International Recognition of the Deposit of Microorganisms for the Purposes of Patent Procedure.
Membranes were harvested from COS-7 cells 48 hours after transient transfection. Adherent cells were washed twice in ice-cold phosphate buffered saline (138 mM NaCl, 8.1 mM Na2HPO4, 2.5 mM KCl, 1.2 mM KH2PO4, 0.9 mM CaCl2, 0.5 mM MgCl2, pH 7.4) and lysed by sonication in ice-cold sonication buffer (20 mM Tris-HCl, 5 mM EDTA, pH 7.7). Large particles and debris were cleared by low speed centrifugation (200×g, 5 min, 4° C.). Membranes were collected from the supernatant fraction by centrifugation (32,000×g, 18 min, 4° C.), washed with ice-cold hypotonic buffer, and collected again by centrifugation (32,000×g, 18 min, 4° C.). The final membrane pellet was resuspended by sonication into a small volume of ice-cold binding buffer (˜1 ml for every 5 plates: 10 mM NaCl, 20 mM HEPES, 0.22 mM KH2PO4, 1.26 mM CaCl2, 0.81 mM MgSO4, pH 7.4). Protein concentration was measured by the Bradford method (Bradford, 1976) using Bio-Rad Reagent, with bovine serum albumin as a standard. Membranes were held on ice for up to one hour and used fresh, or flash-frozen and stored in liquid nitrogen.
Membranes were prepared similarly from 293, LM(tk-), and NIH-3T3 cells. To prepare membranes from baculovirus infected cells, 2×10^7 Sf21 cells were grown in 150 mm tissue culture dishes and infected with a high-titer stock of hY5BB3. Cells were incubated for 2-4 days at 27° C., no CO2 before harvesting and membrane preparation as described above.
Membrane suspensions were diluted in binding buffer supplemented with 0.1% bovine serum albumin to yield an optimal membrane protein concentration so that ^125I-PYY (or alternative radioligand such as ^125I-NPY, ^125I-PYY3-36, or ^125I-[Leu^31Pro^34]PYY) bound by membranes in the assay was less than 10% of ^125I-PYY (or alternative radioligand) delivered to the sample (100,000 dpm/sample=0.08 nM for competition binding assays). ^125I-PYY (or alternative radioligand) and peptide competitors were also diluted to desired concentrations in supplemented binding buffer. Individual samples were then prepared in 96-well polypropylene microtiter plates by mixing 125I-PYY (25 μL) (or alternative radioligand), competing peptides or supplemented binding buffer (25 μL), and finally, membrane suspensions (200 μL). Samples were incubated in a 30° C. water bath with constant shaking for 120 min. Incubations were terminated by filtration over Whatman GF/C filters (pre-coated with 1% polyethyleneimine and air-dried before use), followed by washing with 5 mL of ice-cold binding buffer. Filter-trapped membranes were impregnated with MeltiLex solid scintillant (Wallac, Turku, Finland) and counted for ^125I in a Wallac Beta-Plate Reader. Alternatively, incubations were carried out in GF/C filter plates (pre-coated with 1% polyethyleneimine and air-dried before use), followed by vacuum filtration and three washes of 300 μL of ice-cold binding buffer. 50 μL of UltimaGold (Packard) scintillant were added and counted for ^125I in a Wallac MicroBeta Trilux. […]

Data set [2] addresses T1, human Y5 receptor (hNPY-5) (Homo sapiens, UniProt Q15761).
T1 construct: expressed in transfected cells; host or cells: mouse fibroblast LM(tk-) cells, e.g. L-hY5-7 (ATCC CRL-11995)
T1 sequence (Q15761 1-445): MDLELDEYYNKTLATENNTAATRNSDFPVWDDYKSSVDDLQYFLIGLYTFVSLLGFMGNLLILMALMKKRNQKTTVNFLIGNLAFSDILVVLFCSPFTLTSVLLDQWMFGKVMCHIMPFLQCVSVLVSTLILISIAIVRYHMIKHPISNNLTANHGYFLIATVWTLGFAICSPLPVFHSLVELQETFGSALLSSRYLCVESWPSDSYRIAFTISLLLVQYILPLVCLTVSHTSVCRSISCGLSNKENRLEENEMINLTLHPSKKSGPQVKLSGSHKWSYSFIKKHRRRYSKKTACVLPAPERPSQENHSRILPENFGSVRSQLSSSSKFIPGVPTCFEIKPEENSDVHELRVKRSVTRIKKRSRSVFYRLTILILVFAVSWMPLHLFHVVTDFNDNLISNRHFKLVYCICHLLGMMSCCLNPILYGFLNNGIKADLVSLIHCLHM
In words: Radioligand binding to membranes, cloned human Y5 receptor. The conditions noted are these: cloned human NPY Y5 receptor, radioligand competition binding; Tables 1-3; read-out: Ki, nM hNPY-5. An outline of the steps:
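Competition binding on membranes from stably transfected 293 or LM(tk-) cells, with 0.08 nM ¹²⁵I-PYY in pH 7.4 HEPES buffer plus 0.1% BSA, 120 min at 30 °C, filtration and counting. Nonspecific binding defined by 300 nM human NPY, or 100 nM human PP for Y4; nonlinear regression.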
(In general: Loss of bound radioactivity is the signal in a displacement assay; it reports binding, not function.)

Take `COc1ccc(S(=O)(=O)NCCCCCNc2nc3c(s2)CCCc2ccc(F)cc2-3)cc1` [Example 18, 1-Aza-9-fluoro-4,5-dihydro-2-(5-(4-methoxyphenyl)-sulfonylamino)pentylamino-3-thia-benzo[e]azulene]: the Ki in data set [1] is above 10000 nM; in data set [2], 7.1 nM.

In the case of `CCS(=O)(=O)NC[C@H]1CC[C@H](Nc2nc3c(s2)CCCc2ccc(F)cc2-3)CC1` [Example 31, trans-N2-(4-Ethylsulfonylaminomethyl)cyclohexyl-9-fluoro-5,6-dihydro-4H-benzo[6,7]cyclohepta[d][1,3]-thiazol-2-amine], the inhibition constant (Ki) in data set [1] was above 10000 nM; in data set [2], 3.9 nM.

For `Cn1cnc(S(=O)(=O)NC[C@H]2CC[C@H](Nc3nc4c(s3)CCCc3ccc(F)cc3-4)CC2)c1` [Example 32, trans-1-Aza-9-fluoro-4,5-dihydro-2-{4-(1-methylimidazolyl-4-yl)sulfonylaminomethyl}cyclohexyl-amino-3-thia-benzo[e]azulene], the inhibitory constant (Ki) was above 10000 nM in data set [1] and 2.9 nM in data set [2].

Turning to `O=S(=O)(NC[C@H]1CC[C@H](Nc2nc3c(s2)CCCc2ccc(F)cc2-3)CC1)c1c(F)cccc1F` [Example 28, trans-N2-(4-(2,6-Difluorophenylsulfonyl)aminomethyl)-cyclohexyl-9-fluoro-5,6-dihydro-4H-benzo[6,7]-cyclohepta-[d][1,3]-thiazol-2-amine], the Ki in data set [1] is above 10000 nM; in data set [2], 4 nM.

With `CCN(CC)S(=O)(=O)NC[C@H]1CC[C@H](Nc2nc3c(s2)CCSc2ccccc2-3)CC1` [Example 102, N′-{[4-(4,5-Dihydrobenzo[2,3]thiepino[4,5-d][1,3]thiazol-2-ylamino)cyclohexyl]methyl}-N,N-diethylsulfamide], the Ki in data set [1] was above 10000 nM; in data set [2], 5.2 nM.

For `NS(=O)(=O)NCCCCCNc1nc2c(s1)CCCc1ccc(F)cc1-2` [Example 25, 1-Aza-9-fluoro-4,5-dihydro-2-(5-aminosulfonylamino)-pentylamino-3-thia-benzo[e]azulene], the Ki in data set [1] was above 10000 nM; in data set [2], 2.9 nM.

Take `CC(C)(C)OC(=O)NCCCCCNc1nc2c(s1)CCSc1ccc(F)cc1-2` [Example 105, tert-Butyl N-{5-[(9-fluoro-4,5-dihydrobenzo[2,3]-thiepino[4,5-d][1,3]thiazol-2-yl)amino]pentyl}-carbamate]: the Ki was above 10000 nM in data set [1] and 91 nM in data set [2].

As for `CCN(CC)S(=O)(=O)NCCCCCNc1nc2c(s1)CCSc1ccccc1-2` [Example 103, N′-[5-(4,5-Dihydrobenzo[2,3]thiepino[4,5-d][1,3]thiazol-2-ylamino)pentyl]-N,N-diethylsulfamide], the Ki in data set [1] is above 10000 nM; in data set [2] it was 3.7 nM.

As to `CCN(CC)S(=O)(=O)NCCCCCNc1nc2c(s1)CCCc1ccc(F)cc1-2` [Example 14, 1-Aza-9-fluoro-4,5-dihydro-2-(5-(diethyl-aminosulfonyl-amino)pentyl)amino-3-thia-benzo[e]-azulene], the Ki in data set [1] was above 10000 nM; in data set [2], 2.1 nM.

With `COc1ccc(S(=O)(=O)NC[C@H]2CC[C@H](Nc3nc4c(s3)CCCc3ccc(F)cc3-4)CC2)cc1` [Example 27, trans-1-Aza-9-fluoro-4,5-dihydro-2-{4-(4-methoxy-phenyl)-sulfonylaminomethyl}cyclohexylamino-3-thia-benzo[e]azulene], the Ki in data set [1] was above 10000 nM; in data set [2], 9.2 nM.

Regarding `O=S(=O)(NC[C@H]1CC[C@H](Nc2nc3c(s2)CCCc2ccc(F)cc2-3)CC1)c1ccccc1F` [Example 26, trans-1-aza-9-fluoro-2-(4-(2-fluorophenyl)sulfonyl-amino-methyl)cyclohexylamino-4,5-dihydro-3-thia-benzo [e]-azulene], the Ki in data set [1] was above 10000 nM; in data set [2], 13.1 nM.

`COc1ccc(C)cc1S(=O)(=O)NCCCCC(=O)Nc1nc2c(s1)CCCc1ccc(F)cc1-2` [Example 49, N1-(9-Fluoro-5,6-dihydro-4H-benzo[6,7]cyclohepta-[d][1,3]-thiazol-2-yl)-5-[(2-methoxy-5-methylphenyl)-sulfonyl]-aminopentanamide] displayed a melting point of 70 to 75 °C. In data set [2], the Ki stood at 2.9 nM.

`CCS(=O)(=O)N[C@H]1CC[C@H](CNc2nc3c(s2)CCOc2cc(OC)ccc2-3)CC1` [Example 60, trans-N2-(4-Ethylsulfonylamino)cyclohexylmethyl-8-methoxy-4,5-dihydro-benzo[2,3]oxepino[4,5-d][1,3]thiazol-2-amine] registered a melting point of 170 to 172 °C. The Ki in data set [2] worked out at 31 nM.

Regarding `COc1ccc2c(c1)CCCc1sc(N[C@H]3CC[C@H](CNS(C)(=O)=O)CC3)nc1-2` [Example 72, trans-1-Aza-4,5-dihydro-8-methoxy-2-(4-methyl-sulfonylamino-methyl)cyclohexylamino-3-thia-benzo[e]azulene], the melting point is 224 to 225 °C. The inhibitory constant (Ki) in data set [2] amounted to 22 nM.

In turn, `CCCN(C=O)C[C@H]1CC[C@H](Nc2nc3c(s2)CCOc2ccccc2-3)CC1` [Example 85, N-{[4-(4,5-Dihydrobenzo[2,3]oxepino[4,5-d][1,3]-thiazol-2-ylamino)cyclohexyl]methyl}-N-propylformamide] came in with a melting point of 53 to 55 °C. For the same molecule, in data set [2], the inhibitory constant (Ki) is 150 nM.

`CCS(=O)(=O)N[C@H]1CC[C@H](CNc2nc3c(s2)CCOc2ccc(OC)cc2-3)CC1` [Example 64, trans-N2-(4-Ethylsulfonylamino)cyclohexylmethyl-9-methoxy-4,5-dihydro-benzo[2,3]oxepino[4,5-d][1,3]thiazol-2-amine] yielded a melting point of 165 to 170 °C. Further, in data set [2], the inhibition constant (Ki) amounted to 12.2 nM.

In turn, `COc1ccc2c(c1)OCCc1sc(NC[C@H]3CC[C@H](NS(C)(=O)=O)CC3)nc1-2` [Example 61, trans-1-Aza-4,5-dihydro-8-methoxy-2-{4-methyl-sulfonyl-amino)cyclohexylmethylamino-6-oxa-3-thia-benzo [e]azulene] yielded a melting point of 65 to 70 °C. Besides, the inhibition constant Ki in data set [2] worked out at 162 nM.

The values above are taken from patent US7273880B2, “Selective NPY (Y5) antagonists” (H. Lunbeck A/S, priority 1999, dated 2007).
